Source: ChEMBL document CHEMBL1201862, “PubChem BioAssay data set” (2004)
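Interpolation was linear, between the two tested concentrations surrounding the appropriate level; five concentrations were tested over 48 hours in 96-well plates. GI50 = concentration required for 50% inhibition of growth.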 The source made the active and inactive calls. Rule as the data show it: active = GI50 up to about 1.1 µM and inactive = higher.

Columns and labels:
Assay in all cases: NCI tumour cell line growth inhibition, 48 h
786-0 = test system: 786-0
A498 = test system: A498
A549 = test system: A549
ACHN = test system: ACHN
BT-549 = test system: BT-549
CAKI-1 = test system: CAKI-1
CCRF-CEM = test system: CCRF-CEM
COLO 205 = test system: COLO 205
DU-145 = test system: DU-145
EKVX = test system: EKVX
HCC 2998 = test system: HCC 2998
HCT-116 = test system: HCT-116
HCT-15 = test system: HCT-15
HOP-62 = test system: HOP-62
HOP-92 = test system: HOP-92
HT-29 = test system: HT-29
Hs-578T = test system: Hs-578T
IGROV-1 = test system: IGROV-1
K562 = test system: K562
KM12 = test system: KM12
M14 = test system: M14
MCF7 = test system: MCF7
MDA-MB-231 = test system: MDA-MB-231
MDA-MB-435 = test system: MDA-MB-435
MDA-N = test system: MDA-N
MOLT-4 = test system: MOLT-4
Malme-3M = test system: Malme-3M
NCI-H23 = test system: NCI-H23
NCI-H460 = test system: NCI-H460
NCI-H522 = test system: NCI-H522
NCI/ADR-RES = test system: NCI/ADR-RES
OVCAR-3 = test system: OVCAR-3
OVCAR-4 = test system: OVCAR-4
OVCAR-5 = test system: OVCAR-5
OVCAR-8 = test system: OVCAR-8
PC-3 = test system: PC-3
RPMI-8226 = test system: RPMI-8226
RXF 393 = test system: RXF 393
SF-268 = test system: SF-268
SF-295 = test system: SF-295
SK-MEL-28 = test system: SK-MEL-28
SK-MEL-2 = test system: SK-MEL-2
SK-MEL-5 = test system: SK-MEL-5
SK-OV-3 = test system: SK-OV-3
SNB-19 = test system: SNB-19
SNB-75 = test system: SNB-75
SW-620 = test system: SW-620
TK-10 = test system: TK-10
U-251 = test system: U-251
UACC-257 = test system: UACC-257
UACC-62 = test system: UACC-62
UO-31 = test system: UO-31
HL-60 = test system: HL-60
LOX IMVI = test system: LOX IMVI
SF-539 = test system: SF-539
SN12C = test system: SN12C
SR = test system: SR

In the case of `CCOP(=O)(OCC)c1cc(-c2ccccc2)ccc1N`, the GI50 (786-0) is reported as > 100 µM (inactive), the GI50 (A498) is reported as > 100 µM (inactive) and the GI50 (A549) is reported as > 100 µM (inactive). For the same compound, the GI50 (ACHN) was > 100 µM (inactive), the GI50 (BT-549) was > 100 µM (inactive) and the GI50 (CAKI-1) was > 100 µM (inactive). The GI50 (CCRF-CEM) was > 100 µM (inactive), the GI50 (COLO 205) was > 100 µM (inactive) and the GI50 (DU-145) was > 100 µM (inactive). The GI50 (EKVX) was 41.5 µM (inactive), the GI50 (HCC 2998) was > 100 µM (inactive) and the GI50 (HCT-116) was 66.5 µM (inactive). The GI50 (HCT-15) was over 100 µM, the GI50 (HOP-62) was 37.2 µM (inactive) and the GI50 (HOP-92) was 34.6 µM (inactive). For the same compound, the GI50 (HT-29) was > 100 µM (inactive), the GI50 (Hs-578T) was 52 µM (inactive) and the GI50 (IGROV-1) was > 100 µM (inactive). The GI50 (K562) was > 100 µM (inactive), the GI50 (KM12) was > 100 µM (inactive) and the GI50 (M14) was > 100 µM (inactive). The GI50 (MCF7) was > 100 µM (inactive), the GI50 (MDA-MB-231) was > 100 µM (inactive) and the GI50 (MDA-MB-435) was > 100 µM (inactive). The GI50 (MDA-N) was > 100 µM (inactive), the GI50 (MOLT-4) was > 100 µM (inactive) and the GI50 (Malme-3M) was > 100 µM (inactive). For the same compound, the GI50 (NCI-H23) was > 100 µM (inactive), the GI50 (NCI-H460) was > 100 µM (inactive) and the GI50 (NCI-H522) was 61.8 µM (inactive). For the same compound, the GI50 (NCI/ADR-RES) was > 100 µM (inactive), the GI50 (OVCAR-3) was > 100 µM (inactive) and the GI50 (OVCAR-4) was 89.1 µM (inactive). For the same compound, the GI50 (OVCAR-5) was > 100 µM (inactive), the GI50 (OVCAR-8) was > 100 µM (inactive) and the GI50 (PC-3) was > 100 µM (inactive). The GI50 (RPMI-8226) was > 100 µM (inactive), the GI50 (RXF 393) was 33 µM (inactive) and the GI50 (SF-268) was > 100 µM (inactive). For the same compound, the GI50 (SF-295) was 92.3 µM (inactive), the GI50 (SK-MEL-28) was > 100 µM (inactive) and the GI50 (SK-MEL-2) was > 100 µM (inactive). The GI50 (SK-MEL-5) was > 100 µM (inactive), the GI50 (SK-OV-3) was > 100 µM (inactive) and the GI50 (SNB-19) was > 100 µM (inactive). The GI50 (SNB-75) was 81.7 µM (inactive), the GI50 (SW-620) was > 100 µM (inactive) and the GI50 (TK-10) was > 100 µM (inactive). For the same compound, the GI50 (U-251) was > 100 µM (inactive), the GI50 (UACC-257) was > 100 µM (inactive) and the GI50 (UACC-62) was > 100 µM (inactive). The GI50 (UO-31) was > 100 µM (inactive).

For `CC(=O)ON(OC(C)=O)c1ccc(C)cc1`, the GI50 (786-0) was > 100 µM (inactive), the GI50 (A498) was > 100 µM (inactive) and the GI50 (A549) was > 100 µM (inactive). For the same compound, the GI50 (ACHN) was > 100 µM (inactive), the GI50 (BT-549) was > 100 µM (inactive) and the GI50 (CAKI-1) was > 100 µM (inactive). For the same compound, the GI50 (CCRF-CEM) was < 0.01 µM (active), the GI50 (COLO 205) was > 100 µM (inactive) and the GI50 (DU-145) was > 100 µM (inactive). The GI50 (EKVX) was > 100 µM (inactive), the GI50 (HCC 2998) was > 100 µM (inactive) and the GI50 (HCT-116) was > 100 µM (inactive). The GI50 (HCT-15) was over 100 µM, the GI50 (HOP-62) was > 100 µM (inactive) and the GI50 (HOP-92) was > 100 µM (inactive). For the same compound, the GI50 (HT-29) was > 100 µM (inactive), the GI50 (Hs-578T) was > 100 µM (inactive) and the GI50 (IGROV-1) was > 100 µM (inactive). For the same compound, the GI50 (K562) was > 100 µM (inactive), the GI50 (KM12) was > 100 µM (inactive) and the GI50 (M14) was > 100 µM (inactive). The GI50 (MCF7) was > 100 µM (inactive), the GI50 (MDA-MB-231) was > 100 µM (inactive) and the GI50 (MDA-MB-435) was > 100 µM (inactive). The GI50 (MDA-N) was > 100 µM (inactive), the GI50 (MOLT-4) was > 100 µM (inactive) and the GI50 (Malme-3M) was > 100 µM (inactive). The GI50 (NCI-H23) was > 100 µM (inactive), the GI50 (NCI-H460) was > 100 µM (inactive) and the GI50 (NCI-H522) was > 100 µM (inactive). For the same compound, the GI50 (NCI/ADR-RES) was > 100 µM (inactive), the GI50 (OVCAR-3) was > 100 µM (inactive) and the GI50 (OVCAR-4) was > 100 µM (inactive). For the same compound, the GI50 (OVCAR-5) was > 100 µM (inactive), the GI50 (OVCAR-8) was > 100 µM (inactive) and the GI50 (PC-3) was > 100 µM (inactive). For the same compound, the GI50 (RPMI-8226) was > 100 µM (inactive), the GI50 (RXF 393) was > 100 µM (inactive) and the GI50 (SF-268) was > 100 µM (inactive). The GI50 (SF-295) was > 100 µM (inactive), the GI50 (SK-MEL-28) was > 100 µM (inactive) and the GI50 (SK-MEL-2) was > 100 µM (inactive). For the same compound, the GI50 (SK-MEL-5) was > 100 µM (inactive), the GI50 (SK-OV-3) was > 100 µM (inactive) and the GI50 (SNB-19) was > 100 µM (inactive). For the same compound, the GI50 (SNB-75) was > 100 µM (inactive), the GI50 (SW-620) was > 100 µM (inactive) and the GI50 (TK-10) was > 100 µM (inactive). For the same compound, the GI50 (U-251) was > 100 µM (inactive), the GI50 (UACC-257) was > 100 µM (inactive) and the GI50 (UACC-62) was > 100 µM (inactive). For the same compound, the GI50 (UO-31) was > 100 µM (inactive).

`Cc1nc2c(o1)C(=O)c1ccccc1/C2=N/c1ccccn1` was tested, and the GI50 (786-0) was 25.6 µM (inactive), the GI50 (A498) was 16.7 µM (inactive) and the GI50 (A549) was 31.8 µM (inactive). The GI50 (ACHN) was 17.3 µM (inactive), the GI50 (BT-549) was 18.3 µM (inactive) and the GI50 (CAKI-1) was 25.8 µM (inactive). The GI50 (CCRF-CEM) was 18.5 µM (inactive), the GI50 (COLO 205) was 35.6 µM (inactive) and the GI50 (EKVX) was 17.7 µM (inactive). For the same compound, the GI50 (HCC 2998) was 21.9 µM (inactive), the GI50 (HCT-116) was 20.4 µM (inactive) and the GI50 (HCT-15) was 14 µM. For the same compound, the GI50 (HL-60) was 15.5 µM (inactive), the GI50 (HOP-62) was 18.4 µM (inactive) and the GI50 (HOP-92) was 18.2 µM (inactive). For the same compound, the GI50 (HT-29) was 18.8 µM (inactive), the GI50 (Hs-578T) was 14.8 µM (inactive) and the GI50 (IGROV-1) was 22.6 µM (inactive). For the same compound, the GI50 (K562) was 29.8 µM (inactive), the GI50 (KM12) was 21.7 µM (inactive) and the GI50 (LOX IMVI) was 19.1 µM (inactive). For the same compound, the GI50 (M14) was 18.6 µM (inactive), the GI50 (MCF7) was 17.7 µM (inactive) and the GI50 (MDA-MB-231) was 15.6 µM (inactive). The GI50 (MDA-MB-435) was 17.9 µM (inactive), the GI50 (MDA-N) was 17.3 µM (inactive) and the GI50 (MOLT-4) was 17.7 µM (inactive). The GI50 (Malme-3M) was 12.5 µM (inactive), the GI50 (NCI-H23) was 11.5 µM (inactive) and the GI50 (NCI-H460) was 14.6 µM (inactive). For the same compound, the GI50 (NCI-H522) was 19 µM (inactive), the GI50 (NCI/ADR-RES) was 15.8 µM (inactive) and the GI50 (OVCAR-3) was 4.66 µM (inactive). The GI50 (OVCAR-4) was 15 µM (inactive), the GI50 (OVCAR-5) was 17.9 µM (inactive) and the GI50 (OVCAR-8) was 15.4 µM (inactive). The GI50 (PC-3) was 30.8 µM (inactive), the GI50 (RPMI-8226) was 17.4 µM (inactive) and the GI50 (RXF 393) was > 100 µM (inactive). For the same compound, the GI50 (SF-268) was 24.2 µM (inactive), the GI50 (SF-295) was > 100 µM (inactive) and the GI50 (SF-539) was 18.2 µM (inactive). For the same compound, the GI50 (SK-MEL-28) was 18.8 µM (inactive), the GI50 (SK-MEL-2) was 18.8 µM (inactive) and the GI50 (SK-MEL-5) was 16.7 µM (inactive). The GI50 (SK-OV-3) was > 100 µM (inactive), the GI50 (SN12C) was 24.9 µM (inactive) and the GI50 (SNB-19) was 14.8 µM (inactive). For the same compound, the GI50 (SNB-75) was 4.57 µM (inactive), the GI50 (SR) was 24.1 µM (inactive) and the GI50 (SW-620) was 17.8 µM (inactive). For the same compound, the GI50 (TK-10) was > 100 µM (inactive), the GI50 (U-251) was 16.8 µM (inactive) and the GI50 (UACC-257) was 14 µM (inactive). The GI50 (UACC-62) was 20 µM (inactive) and the GI50 (UO-31) was 22.6 µM (inactive).
